Measured values as given in PubChem BioAssay (NCI).
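Where inhibition never reached the appropriate level, the endpoint shown equals the highest concentration tested. Otherwise, values were interpolated linearly from a five-concentration, 48-hour dose response in 96-well plates. TGI marks complete inhibition of growth.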

How the values were obtained:
Assay in all cases: NCI tumour cell line growth inhibition, 48 h
786-0 renal = system: 786-0 renal
A498 renal = system: A498 renal
A549 NSCLC = system: A549 NSCLC
ACHN renal = system: ACHN renal
BT-549 breast = system: BT-549 breast
CAKI-1 renal = system: CAKI-1 renal
CCRF-CEM leukemia = system: CCRF-CEM leukemia
COLO 205 colon = system: COLO 205 colon
DU-145 prostate = system: DU-145 prostate
EKVX NSCLC = system: EKVX NSCLC
HCC-2998 colon = system: HCC-2998 colon
HCT-116 colon = system: HCT-116 colon
HCT-15 colon = system: HCT-15 colon
HL-60(TB) leukemia = system: HL-60(TB) leukemia
HOP-62 NSCLC = system: HOP-62 NSCLC
HOP-92 NSCLC = system: HOP-92 NSCLC
HS 578T breast = system: HS 578T breast
HT29 colon = system: HT29 colon
IGROV1 ovarian = system: IGROV1 ovarian
K-562 leukemia = system: K-562 leukemia
KM12 colon = system: KM12 colon
LOX IMVI melanoma = system: LOX IMVI melanoma
M14 melanoma = system: M14 melanoma
MCF7 breast = system: MCF7 breast
MDA-MB-231 breast = system: MDA-MB-231 breast
MDA-MB-435 = system: MDA-MB-435
MDA-N = system: MDA-N
MOLT-4 leukemia = system: MOLT-4 leukemia
NCI-H226 lung = system: NCI-H226 lung
NCI-H23 lung = system: NCI-H23 lung
NCI-H460 lung = system: NCI-H460 lung
NCI-H522 lung = system: NCI-H522 lung
NCI/ADR-RES ovarian = system: NCI/ADR-RES ovarian
OVCAR-3 ovarian = system: OVCAR-3 ovarian
OVCAR-4 ovarian = system: OVCAR-4 ovarian
OVCAR-5 ovarian = system: OVCAR-5 ovarian
OVCAR-8 ovarian = system: OVCAR-8 ovarian
PC-3 prostate = system: PC-3 prostate
RPMI-8226 leukemia = system: RPMI-8226 leukemia
SF-268 CNS = system: SF-268 CNS
SF-295 CNS = system: SF-295 CNS
SF-539 CNS = system: SF-539 CNS
SK-MEL-2 melanoma = system: SK-MEL-2 melanoma
SK-MEL-28 melanoma = system: SK-MEL-28 melanoma
SK-MEL-5 melanoma = system: SK-MEL-5 melanoma
SK-OV-3 ovarian = system: SK-OV-3 ovarian
SN12C renal = system: SN12C renal
SNB-19 CNS = system: SNB-19 CNS
SNB-75 CNS = system: SNB-75 CNS
SR leukemia = system: SR leukemia
SW-620 colon = system: SW-620 colon
T-47D breast = system: T-47D breast
TK-10 renal = system: TK-10 renal
U251 CNS = system: U251 CNS
UACC-257 melanoma = system: UACC-257 melanoma
UACC-62 melanoma = system: UACC-62 melanoma
UO-31 renal = system: UO-31 renal
MALME-3M melanoma = system: MALME-3M melanoma

CC(=O)OC1(C)C(=O)OC/C2=C/CN(C)CCC(OC(=O)C(O)(C(C)Cl)CC1C)C2=O (stereo unspecified)
TGI (786-0 renal): > 100 µM
TGI (A498 renal): > 100 µM
TGI (A549 NSCLC): > 100 µM
TGI (ACHN renal): > 100 µM
TGI (BT-549 breast): > 100 µM
TGI (CAKI-1 renal): > 100 µM
TGI (CCRF-CEM leukemia): > 100 µM
TGI (COLO 205 colon): > 100 µM
TGI (DU-145 prostate): > 100 µM
TGI (EKVX NSCLC): > 100 µM
TGI (HCC-2998 colon): > 100 µM
TGI (HCT-116 colon): > 100 µM
TGI (HCT-15 colon): > 100 µM
TGI (HL-60(TB) leukemia): > 100 µM
TGI (HOP-62 NSCLC): > 100 µM
TGI (HOP-92 NSCLC): > 100 µM
TGI (HS 578T breast): > 100 µM
TGI (HT29 colon): > 100 µM
TGI (IGROV1 ovarian): > 100 µM
TGI (K-562 leukemia): > 100 µM
TGI (KM12 colon): > 100 µM
TGI (LOX IMVI melanoma): > 100 µM
TGI (M14 melanoma): > 100 µM
TGI (MCF7 breast): > 100 µM
TGI (MDA-MB-231 breast): > 100 µM
TGI (MDA-MB-435): > 100 µM
TGI (MDA-N): > 100 µM
TGI (MOLT-4 leukemia): > 100 µM
TGI (NCI-H226 lung): > 100 µM
TGI (NCI-H23 lung): > 100 µM
TGI (NCI-H460 lung): > 100 µM
TGI (NCI-H522 lung): > 100 µM
TGI (NCI/ADR-RES ovarian): > 100 µM
TGI (OVCAR-3 ovarian): > 100 µM
TGI (OVCAR-4 ovarian): > 100 µM
TGI (OVCAR-5 ovarian): > 100 µM
TGI (OVCAR-8 ovarian): > 100 µM
TGI (PC-3 prostate): > 100 µM
TGI (RPMI-8226 leukemia): > 100 µM
TGI (SF-268 CNS): > 100 µM
TGI (SF-295 CNS): > 100 µM
TGI (SF-539 CNS): > 100 µM
TGI (SK-MEL-2 melanoma): > 100 µM
TGI (SK-MEL-28 melanoma): > 100 µM
TGI (SK-MEL-5 melanoma): > 100 µM
TGI (SK-OV-3 ovarian): > 100 µM
TGI (SN12C renal): > 100 µM
TGI (SNB-19 CNS): > 100 µM
TGI (SNB-75 CNS): > 100 µM
TGI (SR leukemia): > 100 µM
TGI (SW-620 colon): > 100 µM
TGI (T-47D breast): > 100 µM
TGI (TK-10 renal): > 100 µM
TGI (U251 CNS): > 100 µM
TGI (UACC-257 melanoma): > 100 µM
TGI (UACC-62 melanoma): > 100 µM
TGI (UO-31 renal): > 100 µM

Cc1c2ccccc2c(C)n2c1nc1cc3ccccc3cc12
TGI (786-0 renal): 2.18 µM
TGI (A549 NSCLC): 3.6 µM
TGI (ACHN renal): > 10 µM
TGI (BT-549 breast): 3.98 µM
TGI (CAKI-1 renal): 2.89 µM
TGI (CCRF-CEM leukemia): 6.65 µM
TGI (COLO 205 colon): 2.82 µM
TGI (DU-145 prostate): 2.78 µM
TGI (EKVX NSCLC): 9.75 µM
TGI (HCC-2998 colon): 3.27 µM
TGI (HCT-116 colon): 2.71 µM
TGI (HCT-15 colon): 3.67 µM
TGI (HL-60(TB) leukemia): 4.59 µM
TGI (HOP-62 NSCLC): 2.76 µM
TGI (HOP-92 NSCLC): 8.89 µM
TGI (HS 578T breast): 3.56 µM
TGI (HT29 colon): 2.15 µM
TGI (IGROV1 ovarian): 2.53 µM
TGI (K-562 leukemia): > 10 µM
TGI (KM12 colon): 2.62 µM
TGI (M14 melanoma): 2.76 µM
TGI (MALME-3M melanoma): 2.63 µM
TGI (MCF7 breast): 1.6 µM
TGI (MDA-MB-231 breast): 2.71 µM
TGI (MDA-MB-435): 3.07 µM
TGI (MDA-N): 2.89 µM
TGI (MOLT-4 leukemia): 3.78 µM
TGI (NCI-H23 lung): 2.8 µM
TGI (NCI-H460 lung): 2.55 µM
TGI (NCI-H522 lung): 4.88 µM
TGI (NCI/ADR-RES ovarian): 2.38 µM
TGI (OVCAR-3 ovarian): 2.18 µM
TGI (OVCAR-4 ovarian): 3.12 µM
TGI (OVCAR-5 ovarian): 2.29 µM
TGI (OVCAR-8 ovarian): 2.21 µM
TGI (PC-3 prostate): 2.79 µM
TGI (RPMI-8226 leukemia): 6.13 µM
TGI (SF-268 CNS): 3.32 µM
TGI (SF-295 CNS): 2.28 µM
TGI (SF-539 CNS): 2.86 µM
TGI (SK-MEL-2 melanoma): 4.99 µM
TGI (SK-MEL-28 melanoma): 2.92 µM
TGI (SK-MEL-5 melanoma): 4.46 µM
TGI (SK-OV-3 ovarian): 7.74 µM
TGI (SN12C renal): > 10 µM
TGI (SNB-19 CNS): 5.01 µM
TGI (SNB-75 CNS): 3.48 µM
TGI (SR leukemia): 7.34 µM
TGI (SW-620 colon): > 10 µM
TGI (T-47D breast): > 10 µM
TGI (TK-10 renal): 8.43 µM
TGI (U251 CNS): 3.7 µM
TGI (UACC-257 melanoma): > 10 µM
TGI (UACC-62 melanoma): 3.9 µM
